# What was measured:
# [1] = tested on: BAT cells induced from wild-type brown preadipocytes; experiment: In vitro staining of BMPs-induced BAT cells (live cell confocal); assay type: cell-based; details: live cell confocal images
# [2] = tested on: differentiated 3T3-L1 cells; experiment: Probe uptake in differentiated 3T3-L1 cells (IVIS and two-photon imaging, competition); assay type: cell-based; details: for uptake with triglyceride competition: triglyceride added with probe, two-photon microscopy and IVIS
# Protocol: (§1) To investigate the facilitated diffusion of CRANAD-2, the time courses of CRANAD-2 uptake in 3T3-L1 cells were compared before and after differentiation. Two-photon imaging for 3T3-L1 cells was performed as follows. Fibroblast 3T3-L1 cells were differentiated following the protocol provided by Zenbio, Inc. (protocol No. ZBM0009.02). Ten microliters of CRANAD-2 (250 μM in DMSO) was added to the differentiated cells (1.0 ml). Cells were imaged after 10 min of incubation. A 940 nm laser was first used to capture an image for CRANAD-2 in 570-620 nm channel (Prairie Two-photon microscope, Middleton, Wis.). Next, the laser was tuned to 750 nm to capture autofluorescence of the cells to outline cell morphology.
# For triglyceride competition, stock solutions of CRANAD-2 (250 μM) and triglyceride (5 mM) in DMSO were prepared. Before imaging, 10 μl of the stock solution was added to the cells.
# (§2) IVIS imaging of 3T3-L1 cells with CRANAD-2 was performed as follows. To a 6-well plate seeded with preadipocytes or differentiated adipocytes, a 10 μL solution of CRANAD-2 (250 μM in DMSO) was added. The plate was subjected to imaging using IVIS imaging system with Ex=605 nm, Em=660 nm before and after addition of CRANAD-2. For triglyceride competition, the same protocol for two-photon imaging was used. The images were acquired at 20 min after addition of CRANAD-2. Studies were performed in triplicate.
# (§3) The uptake of CRANAD-29 in 3T3-L1 cells before and after differentiation was compared. IVIS imaging of 3T3-L1 cells with CRANAD-29 was performed as follows. To a 6-well plate seeded with preadipocytes or differentiated adipocytes, a 10 μL solution of CRANAD-29 (250 μM in DMSO) was added. The plate was subjected to imaging using IVIS imaging system with Ex=640 nm, Em=700 nm before and after addition of CRANAD-29. For triglyceride competition and Hexarelin inhibition, the similar protocol for CRANAD-2 imaging was used. The final concentration of hexarelin was 12.5 μM, and the images were acquired at 3 hours after addition of CRANAD-29 and triglyceride/Hexarelin. Studies were performed in triplicate.
# brown adipose cells = experiment: Ex vivo histology of dissected BAT slices; set-up: species or system mice; details: fluorescence microscopy
# Protocol: (§4) Next the time course of CRANAD-2 and CRANAD-3 accumulation in BAT area was investigated. […] Similarly, the signal of CRANAD-3 reached the uptake peak around one hour, and then gradually washed out (FIG. 8c-d). Accumulation of CRANAD-2 and -3 in BAT was further confirmed with ex vivo histology of the dissected BAT slices, performed as follows. The dissected BAT was fixed with 4% formalin at 4° C. overnight, and then embedded into OCT. BAT tissue was cut into 7 micron thickness slices, washed with PBS buffer, and co-stained with DAPI (Vectra Shield, Vector Lab, Burlingame, Calif.). Images were acquired with fast exposure to capture the dye signal in the oil droplets. To outline cell membrane cell autofluorescence was captured with long exposure after image of the dye signal from oil droplets was already acquired. To further validate the capacity of CRANAD-29 for BAT labeling, ex vivo histological microscopic imaging with CRANAD-29 was conducted. […] Gold standard H&E staining also provided similar images (FIG. 10a). […] The injection dose of CRANAD-29 was optimized, and the fluorescence signal reached its plateau at 0.4 mg/kg (FIG. 11). In the following studies, 0.1 mg/kg dose was used.
# interscapular BAT [3] = experiment: Time course and dose optimization of probe signal in BAT area after i.v. injection; assay type: in vivo, mice
# Protocol: as §4
# [4] = tested on: undifferentiated 3T3-L1 cells; experiment: Probe uptake in undifferentiated 3T3-L1 cells (IVIS imaging); assay type: cell-based
# Protocol: as §1, §2, §3
# interscapular BAT [5] = experiment: Monitoring interscapular BAT mass change in STZ-induced diabetic mice; assay type: in vivo, Balb/c mice
# Protocol: Monitoring was performed as follows. Two-month old Balb/c mice (n=5) were injected with STZ (80 mg/kg) for 7 days. When blood glucose levels reached 250 mg/dL on two consecutive days, mice were subjected to NIR imaging with CRANAD-29. Before imaging, the fur around the interscapular area was removed. Images were acquired at pre-injection, as well as 2- and 4-hours after i.v. injection. After imaging, mice were sacrificed, BAT from both groups was dissected, and weighted, and the linear correlation was established between in vivo fluorescence signal and weight of the dissected BATs. The same imaging procedure was conducted with the control group injected with the same volume of saline for 7 days (n=5).
# interscapular BAT [6] = experiment: Monitoring BAT activation under cold exposure; assay type: in vivo, balb/c mice; details: 4° C. cold exposure
# Protocol: BAT could be activated under various conditions including cold exposure. In this report, whether CRANAD-29 could be used to monitor BAT activation under these conditions was investigated as follows. Two-month old balb/c mice (n=5) were placed in a 4° C. cold room for 2 hours before i.v. injection of CRANAD-29. Images were acquired at 1-, 2-, 4-hours after probe injection, and mice were placed in the cold room between imaging sessions. Control mice (n=5) were placed in a 25° C. room. Images were captured at the same time points after CRANAD-29 injection.
# inguinal sWAT = experiment: Monitoring browning of subcutaneous WAT after CL 316,243 treatment; assay type: in vivo, C57BL6 mice; details: after 12 days CL 316,243 1.0 mg/kg i.p.
# Protocol: Two-month old C57BL6 mice (n=5) were i.p. injected CL 316,243 (100 uL, 1.0 mg/kg) for 12 days, and the control mice (n=5) were i.p. injected with saline. On the 13th day, both groups were imaged after i.v. injection of CRANAD-29. Images were acquired at 1-, 2-, 4-hours after the probe injection. After the last imaging session, inguinal sWAT were dissected after scarification of the mice, and the dissected sWAT tissue was subjected to qPCR for UCP-1 expression and H&E staining
smiles,measurement,setting,value
CN(C)c1ccc(/C=C/C2=CC(=C/C=C3C=CC(=[N+](C)C)C=C3)/O[B-](F)(F)O2)cc1 [CRANAD-2],staining of oil droplets in BAT cells,[1],able to clearly label oil droplets in BAT cells
same,time to uptake plateau,[2]; differentiated 3T3-L1 cells,15 min
same,"uptake within 1 minute, of the maximal",[2]; differentiated 3T3-L1 cells,62%
same,uptake with triglyceride competition,[2],significant decrease in uptake
same,labeling in ex vivo histology of BAT slices,brown adipose cells,labeled oil droplets in brown adipose cells
same,cleared by,interscapular BAT [3]; i.v. injection,≤ 720 min
same,signal detectable until,interscapular BAT [3]; i.v. injection,at least 180 min
same,time of uptake peak in BAT area after injection,interscapular BAT [3]; i.v. injection,120 min
same,time to maximal uptake,[4],≤ 1 min
F[B-]1(F)OC(/C=C/c2cc3c4c(c2)CCCN4CCC3)=CC(/C=C/c2cc3c4c(c2)CCCN4CCC3)=[O+]1 [CRANAD-29],fluorescence signal from diabetic mice vs control group,"interscapular BAT [5]; STZ 80 mg/kg for 7 days, CRANAD-29 i.v.",significantly lower
same,correlation between BAT mass and fluorescence signal,interscapular BAT [5]; STZ-treated and normal animals,excellent direct correlation
same,time to uptake plateau,[2]; differentiated 3T3-L1 cells,around 90 minute
same,reduction of uptake in glutaraldehyde-fixed cells,[2]; differentiated 3T3-L1 cells fixed with glutaraldehyde,70%
same,uptake with Hexarelin (CD36 specific ligand),"[2]; hexarelin 12.5 μM, images at 3 hours",significantly inhibited by Hexarelin
same,uptake with triglyceride competition,[2],significantly reduced by triglyceride
same,labeling in ex vivo histology of BAT slices,brown adipose cells,capable of labeling BAT cells
same,injection dose at which fluorescence signal reached its plateau,interscapular BAT [3]; dose optimization,0.4 mg/kg
same,time at which uptake reached plateau after probe injection,"interscapular BAT [3]; mouse, in vivo, iv",around 2 h
same,signal of cold-exposed animals vs control group,interscapular BAT [6]; 1 hour after probe injection,1.65 fold
same,signal of cold-exposed animals vs control group,interscapular BAT [6]; 2 hours after probe injection,1.59 fold
same,signal of cold-exposed animals vs control group,interscapular BAT [6]; 4 hours after probe injection,1.53 fold
same,uptake in undifferentiated cells over the time course,[4],no apparent uptake
same,"CRANAD-29 signal around inguinal subcutaneous WAT, treated vs control group",inguinal sWAT,significantly higher
same,"fluorescent signal from interscapular BAT area, treated vs control group",inguinal sWAT,higher fluorescent signal

# From patent US9757477B2, “Imaging brown adipose tissue with curcumin derivatives” (The General Hospital Corporation, priority 2013, dated 2017)
